Data on 4 molecules can be found in patent US20100248229A1, “INVITRO HUMAN EMBRYONIC MODEL AND A METHOD THEREOF” (Stempeutics Research Private Limited, priority 2007, published 2010).

One series relates to EBs. In words: In vitro 3-D embryo implantation model: attachment and outgrowth of EBs. The conditions noted are these: for degeneration, attachment and outgrowth of EBs in implantation model: high dose, 48 hrs; for ability of attached EBs to give rise to all lineages: lineage induction studies, in presence of the compound. The class given is cell-based, human. The source says: An in vitro 3-dimensional (3-D) model/system for embryo implantation employing EBs in place of embryos was developed. The EBs collected on different days were subjected to implantation/attachment on the artificial substratum/surface.
To make this artificial surface regular tissue culture dishes or organ culture dishes were coated with about 1 to 2 mm thick coating of 0.5 to 1% low melting or high melting agarose in DPBS. A few wells of about 1 to 2 mm diameter are created using sterile paper disks, preferable in the center of the dish, which were removed after the agarose solidifies. Alternatively a horizontal tube like structure can be created by casting the gel over a fine glass capillary, which can be withdrawn as the agarose solidifies. This cavity/depression or tube like structure of agarose is then coated with matrix proteins like matrigel, collagen, fibronectin, laminin, gelatin etc. The coated agarose dishes were also layered with mouse or human endometrial stromal cells obtained from primary cultures or cell lines. The EBs were placed carefully in the cavity created or flushed inside the tube using a bent pasture pipette. The cells were cultured in normal standard EB media.
The EBs adhere and outgrows spreading out as a monolayer of cells on the extracellular matrix. Some cells invaded the surrounding agarose by day 10. A failure to implant/outgrow within ten days on this matrix after exposure to the drug/molecule indicates an abnormality. However, some drugs/could also support/enhance the process of attachment and outgrowth of the EBs. These molecules were screened for several other possible applications, though these may not necessarily be safe for embryonic development.
Four day old EBs were cultured on agarose and fibronectin coated surfaces. […] However, as Y27632 supports and enhances outgrowth, the effect of this drug on the expression profiles of the lineage markers and other genes needs to be screened for evaluating effect on normal development.
The model consists of a culture plate which is coated with Low melting (0.5%) agarose, A well of various depths is created in the agarose by various means eg: putting sterile filter paper disks while casting the gel and removing them latter. The gel is then coated with extracellular matrix components like fibronectin, collagen, laminin, etc. Human endometrial stromal fibroblast cell line CRL4003 is grown on this extracellular matrix as a monolayer. The spherical embryoid bodies or embryo like entities at day 4.5 are injected or pipetted into these cavities. The attachment is allowed in a culture media regularly used for hESC culture, without FGF2 supplementation (FIG. 1).
3. Lineage induction studies: The embryoid bodies after attachment to the implantation site differentiates to all lineages.
Method: Spherical Cytic EBs were collected on day 4.5 and exposed to the continuous presence of Y27632 (various doses were used). […] The control cytic EB had however just attached with smaller area of outgrowth showing that this dose of Y27632 can help in initial implantation of embryo during pregnancy.

The test system of the next series is HUES 9 EB. In words: Expression profiles of lineage, pluripotency, epigenetic and imprinted genes in day 4.5 spherical EBs (HUES 9). Format: cell-based, human. The arrangement: key: The sign ‘+’ indicates expression of the gene; the sign “−” indicates non-expression of the gene. How it is done:
RT-PCR: Total RNA from cells was isolated using TRIZOL-LS Reagent (Invitrogen) as per the manufacturer's protocol. Complementary DNA was synthesized using the SuperScript III First-Strand Synthesis System (Invitrogen) as per the manufacturer's instructions. Polymerase Chain Reaction (PCR) was carried out using 1U Tag DNA Polymerase (Sigma) and MgCl2 to a final concentration of 1.5 mM in a total volume of 25 μl/reaction. β-actin and GAPDH were used as the housekeeping controls. PCR cycles consisted of an initial denaturation at 95° C. for 5 minutes followed by 35 amplification cycles of denaturation at 94° C. for 45 seconds, annealing for 45 seconds, and extension at 72° C. for 45 seconds and final extension at 72° C. for 10 minutes.
Examples of changes in the expression profiles/patterns of lineage markers, pluripotency markers, epigenetic markers and imprinted genes, in day 4.5 spherical cavitating/cytic embryoid bodies upon exposure to compounds like lipopolysaccharide (LPS), Rho kinase inhibitor (Y27632), Azacytidine (Aza), and biologicals like an Uvomorulin antibody (UVO) are given in the table nos. 9-12 below. The sign ‘+’ indicates expression of the gene and the sign “−” indicates non-expression of the gene.

[1] abbreviates: HUES 9 EB DAY 4.5 RI (Y27632), control +.
Where [2] appears, read: HUES 9 EB DAY 4.5 RI (Y27632), control −.

Entries after “also recorded” stand apart in the source; their conditions may differ.

`Nc1ncn([C@@H]2O[C@H](CO)[C@@H](O)[C@H]2O)c(=O)n1` [5-Azacytidine]: in the series with EBs, the “degeneration, attachment and outgrowth of EBs in implantation model” value was “degeneration of the EBs, and they failed to attach and outgrow”. Besides, in the series on HUES 9 EB (HUES 9 EB D 4.5 AZA, control +), the BRACHURY gene expression result is “−”, the CDH1 gene expression entry is recorded as “−”, the CDH13 gene expression result is “−” and the CDX2 gene expression entry was “−”. Besides, in the series on HUES 9 EB (HUES 9 EB D 4.5 AZA, control +), the DLK1 gene expression result was “−”, the HOXD12 gene expression result is reported as “−”, the NANOG gene expression entry is “−” and the SDHD gene expression entry was “−”. Moreover, in the series with HUES 9 EB (HUES 9 EB D 4.5 AZA, control +), the TIMP3 gene expression entry was “−”, the TNFR gene expression result is recorded as “−”, the hTERT gene expression entry was “−” and the p53 gene expression entry was “−”. Moreover, in the series on HUES 9 EB (HUES 9 EB D 4.5 AZA, control −), the BMP-2 gene expression result is “−”, the CD44 gene expression result was “−”, the DPYS gene expression entry is on record as “+” and the H19 gene expression entry is given as “−”. Moreover, in the series on HUES 9 EB (HUES 9 EB D 4.5 AZA, control −), the OCT-4 gene expression result is on record as “+”, the PTEN gene expression entry is reported as “−” and the “β-III TUBULIN gene expression” value is “−”.
On to `C[S+](C)[O-]` [DMSO], for which, in the series with EBs, the “degeneration, attachment and outgrowth of EBs in implantation model” value is “degeneration of the EBs, and they failed to attach and outgrow”; the “ability of attached EBs to give rise to all lineages” value is “compromised”.
For the molecule `OO` [H2O2], the “ability of attached EBs to give rise to all lineages” value with EBs is “compromised”.
Consider `C[C@@H](N)[C@H]1CC[C@H](C(=O)Nc2ccncc2)CC1` [Y27632], for which, in the series with EBs (day 4.5 EBs, 20 μM, 48 hrs exposure), the “attachment and outgrowth of spheroid cavitating/cystic EB in implantation model” value is “supportive/enhanced attachment; also recorded: attached and outgrown to a larger area”. For the same molecule, the “attachment of EBs” value in the series with EBs (four day old EBs on agarose and fibronectin coated surfaces, 20 μM, control attached from 4th day) is “enhanced attachment from day 2 onwards”. For the same molecule, in the series on HUES 9 EB (setting [1]), the BRACHURY gene expression result is listed as “−”, the CDH1 gene expression result is “+”, the CDX-2 gene expression result is “−” and the DLK-1 gene expression entry is given as “−”. In addition, in the series with HUES 9 EB (setting [1]), the HOXD11 gene expression entry is “+”, the HOXD12 gene expression entry is “−”, the SDHD gene expression result was “−” and the TIMP3 gene expression entry is “−”. In addition, in the series with HUES 9 EB (setting [1]), the hTERT gene expression result was “−” and the p53 gene expression result is listed as “−”. In the series on HUES 9 EB (setting [2]), the BMP-2 gene expression result is “−”, the CD44 gene expression entry is “+”, the NOTCH gene expression result is “+” and the OCT-4 gene expression entry is “+”. Besides, in the series with HUES 9 EB (setting [2]), the PGR gene expression result was “+”, the PTEN gene expression entry is given as “+”, the “TGF β gene expression” value is recorded as “+” and the TP73 gene expression entry is given as “+”. Moreover, the “β-III TUBULIN gene expression” value in the series on HUES 9 EB (setting [2]) is on record as “+”.
